Assays:
Format in all cases: nucleic-acid assay
Nucleic Acid [1] = experiment: Binding affinity to Poly(dA.dT)2 DNA in phosphate buffer assessed as change in melting temperature
Nucleic Acid [2] = experiment: Binding affinity to Salmon sperm DNA in phosphate buffer assessed as change in melting temperature; conditions: Oncorhynchus
Nucleic Acid [3] = experiment: Binding affinity to Poly(dA).Poly(dT) DNA in MES buffer assessed as change in melting temperature

Structure (SMILES)	ΔTm (Nucleic Acid [1]) [°C]	ΔTm (Nucleic Acid [2]) [°C]	ΔTm (Nucleic Acid [3]) [°C]
Cn1cc(NC(=O)c2cc(NC(=O)CNC(=N)N)cn2C)cc1C(=O)NCCC(=N)N	39		
N=C(N)Oc1ccc(Cc2ccc(O)cc2)cc1		2	
Nc1ccc(Sc2ccc(N=C3NCCN3)cc2)cc1		0	
N=C(N)Nc1ccc(Cc2ccc(N)cc2)cc1		3	
N=C(N)Nc1ccc(Sc2ccc(N)cc2)cc1		2	
N=C(N)Oc1ccc(Sc2ccc(O)cc2)cc1		2	
N=C(N)Oc1ccc(Sc2ccc(OC(=N)N)cc2)cc1		5	
N=C(N)Nc1ccc(NC(=O)Nc2ccc(N)cc2)cc1		2	
N=C(N)Nc1ccc(NC(=O)Nc2ccc(N=C3NCCN3)cc2)cc1	14	11.5	30
N=C(N)Nc1ccc(Oc2ccc(N=C3NCCN3)cc2)cc1	10	7	25.3
N=C(N)Nc1ccc(C(=O)c2ccc(N=C3NCCN3)cc2)cc1	15	8	32
N=C(N)Nc1ccc(CCc2ccc(N)cc2)cc1		0	
N=C(N)Oc1ccc(Oc2ccc(O)cc2)cc1		4	
Nc1ccc(Oc2ccc(N=C3NCCN3)cc2)cc1		0	
N=C(N)Oc1ccc(Oc2ccc(OC(=N)N)cc2)cc1		6	
Nc1ccc(NC(=O)Nc2ccc(N=C3NCCN3)cc2)cc1		4	
Nc1ccc(CCc2ccc(N=C3NCCN3)cc2)cc1		0	
N=C(N)Nc1ccc(Sc2ccc(N=C3NCCN3)cc2)cc1	9	7	23
N=C(N)Nc1ccc(Nc2ccc(N)cc2)cc1		2	
N=C(N)Nc1ccc(Cc2ccc(N=C3NCCN3)cc2)cc1	6	6	17.2
N=C(N)Nc1ccc(Oc2ccc(N)cc2)cc1		2	
N=C(N)Oc1ccc(Cc2ccc(OC(=N)N)cc2)cc1		4	
N=C(N)Nc1ccc(N2CCN(c3ccc(N)cc3)CC2)cc1		2	
N=C(N)Nc1ccc(N2CCN(c3ccc(N=C4NCCN4)cc3)CC2)cc1	15	9	31.1
N=C(N)Nc1ccc(CCc2ccc(N=C3NCCN3)cc2)cc1	16	8	29
N=C(N)Nc1ccc(Nc2ccc(N=C3NCCN3)cc2)cc1	17.5	12	35.1
Nc1ccc(Cc2ccc(N=C3NCCN3)cc2)cc1		3	
Nc1ccc(N2CCN(c3ccc(N=C4NCCN4)cc3)CC2)cc1		1	
N=C(N)Nc1ccc(C(=O)c2ccc(N)cc2)cc1		0	
Nc1ccc(Nc2ccc(N=C3NCCN3)cc2)cc1		2	
